Assay results taken from patent EP0139358B1, “N6-substituted diarylalkyl adenosines, processes for their production and pharmaceutical compositions comprising the same” (priority 1983, dated 1985).
Where two headings read alike, the source gives them in different places.

Columns and labels:
rat heart = experiment: Coronary blood flow (PCS2A): isolated perfused heart
Experimental: CORONARY BLOOD FLOW (PCS2A)
Male rats (400-600 gms) are pretreated with Na haparin 2000 units and anesthetized with Na pentobarbital (50 mg/kg) administered intraperitoneally. Once anesthetized, the rat heart is rapidly excised, the ascending aorta fitted to the aortic perfusion cannula, and […] with a ligature. The coronary arteries are perfused initially at a rate of about 15 ml/min for two to three minutes, afterwhich they are perfused at constant pressure of 70 mm Hg and temperature of 37°C. The electrocardiogram (ECG) is recorded using two platinum electrodes positioned at the base and apex of the left ventricle. A second heart is excised, cannulated, and perfused by the same method outlined above. Both hearts are tested in parallel. The standard physiological salt solution (PSS) is a modified Krebs-Hanseleit bicarbonate buffer of the following composition in mM concentration: NaCI, 127; NaHC03, 25; dextrose, 5.5; Na Pyruvate, 2.0: KCI, 4.7; MgS04, 1.1; KH 2P04, 1.2; CaCl2·2H2O, 2.5; CaNa2 EDTA, 0.05.
A 30-minute stabilization period is observed before starting the test protocol.
The microprocessor control system is a servo mechanism which permits coronary perfusion pressure (CPP) and drug concentration to be maintained constant independent of changes in coronary flow. The level at which CPP and drug concentration are maintained can be changed by commands communicated through the microprocessor keyboard. Dose-response curves are carried out by perfusing concentrated drug solution (DC) at rates proportional to total coronary flow (CFT). Drug concentrations are increased by proportionate increases in the rate of DC infusion over CFT via the microprocessor keyboard. The proportional flow rates for DC:CFT is about .0002:1 at the low end and .02: at the high end of the dose-response curve. Dose-response curves encompassing at least two log doses are carried out by preparing two DCs with a concentration difference of 1:100. Following the first dose range of two log doses, the DC are switched, proportional pumping rate adjusted, and the dose-response curve continued for another two log doses. The standard dose-response curve is carried out in one-half log dose increments starting at a subthreshold dose and ending at a dose which produces near maximal response in activity. Standard reference compounds are tested over the range of 10-^9 to 10-^6M.
Measurements are for heart rate (HR) and coronary flow (CF). Units are: HR, beats/minute (bpm) and CF, milliliters/minute (ml/min). HR is calculated from the ECG strip chart recording and CF is calculated by recording analog outputs from pumps 1 and 2. Outputs from pump #1 = CFT and the output from pump #2 = CF for heart B (CFg). CF for heart A (CFA) is calculated (CFT - CFB = CFA).
Using the above technique, the effects of the compound of Examples 1 and 2 are as follows: […]

Swiss-Webster male mice [1] = experiment: Mouse Activity and Screen Test (MAST): inhibition of spontaneous locomotion (LI); assay type: in vivo
Experimental: (§1) Treatments are administered intraperitoneally one hour prior to testing. […] Compounds are dissolved or suspended in 0.2% Methocel. Control animals are injected with Methocel.
Immediately following the screen test, the final phase of testing is initiated by placing each group of three mice in one actophotometer (Life Sciences, 22, 1067-1076, 1978). The actophotometer consists of a cylindrical chamber whose center is occupied by another cylinder which contains the illumination for six photocells located on the perimeter of the chamber. Six light-beam interruptions equal one count. Locomotor activity is recorded by computer at ten minute intervals for 60 minutes. […]

[2] = system: Long-Evans rats or squirrel-monkeys; experiment: Antipsychotic lever-push shock avoidance protocol (SIDR); assay type: in vivo; conditions: Rattus norvegicus; shock avoidance lever pushing; read-out: SIDR ED50
Experimental: Representative compounds of the invention (identified in the Examples) were also tested for antipsychotic activity according to the following protocol (SIDR). […] Mature male Long-Evans rats or squirrel-monkeys are conditioned to push a lever in order to avoid a painful electric footshock. If the animal fails to push the lever, he receives a shock every ten seconds until the lever is pushed. Shocks can be terminated by pushing the lever. Thereafter, as long as the lever is pushed at least once every 20 seconds, there will be no shock. Each animal acts as its own control; one weekly session is used to establish baseline behavior and another session later in the week is used as a drug session. Once patterns of avoidance are established, the effects of standard and unknown compounds are studied. All events are electronically programmed and the response to these events counted or used as feedback to the program.

Swiss-Webster male mice [3] = experiment: Mouse Activity and Screen Test (MAST): screen test (ST); assay type: in vivo; conditions: for Inhibition of screen test failure: percent of mice falling off the screen; for MAST ST LAD: lowest dose at which an A rating (60-100%) is achieved, screen test, intraperitoneally
Experimental: as §1
The compounds are identified in the Examples.

conscious rat = experiment: Antihypertensive evaluation (AHP3): aortic blood pressure and heart rate; assay type: in vivo; conditions: for minimal effective dose: read-out: AHP3 BP LAD
Description: […] EVALUATION (AHP3)
This test procedure is described in the following paragraphs.
A Method for the Direct Monitoring of Aortic Blood Pressure and Heart Rate from Conscious Rats
The continuous monitoring of pulsatile blood pressure (BP) from unrestrained conscious rats surgically equipped with polyethylene cannulas was accomplished by means of a computer assisted data capture scheme (CADCS). The absic elements of the methodology are the cannulation procedure and the CADCS.
Cannulation Procedure: Rats were anesthetized with Telazol (1:1 tiletamine HCI and zolazepam HCI); 20-40 mg/kg IM and the descending aorta exposed via a midline incision. Cannulas fabricated from polyethylene tubing were inserted into the aorta via an undersized puncture hole below the renal arteries. The puncture hole was made by a 23 G disposable needle with a section of the aorta clamped off above and below the puncture site. The cannulas, consisting of a PE100 (0.86 mm ID) body and a PE50 (0.58 mm ID) tip, were attached to a trocar, inserted through the psoas muscle, and passed subcutaneously along the midline of the back and externalized between the ears. The cannulas were anchored to the psoas muscle and between the scalulae (3-0 green braided suture). The midline incision was closed in two steps (muscle first, skin second) using continuous over-and over sutures (4-0 chronic). Each rat was then given penicillin 30,000 units subcutaneously (Penicillin G Procaine Sterile Suspension).
The rats were fitted with a harness-spring-swivel assembly designed to protect the cannula and to provide the rat relative freedom of movement. The harnesses were fabricated from nylon hook and loop tape cemented to a metal plate to which spring wires (18-8 stainless steel), were attached to brass swivels. Each polyethylene cannula was channeled through a spring and connected through a swivel to a pressure transducer (Model P23Gb; Statham Instruments; Hato Rey, Puerto Rico) and an infusion pump (Sage model 234-7; Orion Research, Cambridge, Ma) by means of PE100 tubing. While on test, each rat received a continuous slow infusion of heparinized saline solution (approximately 400 I or 40 units of heparin per 24 hour period) to prevent clot formation. Additional "flushes" of the cannula with heparinized saline were carried out when the aortic pulse pressure (systolic minus diastolic) was less than 25 mm Hg.
CADCS: The pulsatile blood pressure and heart rate of each of 32 rats was monitored every minute by means of two in-laboratory microcomputers communicating directly with a data concentrator computer. The data were first stored on the data concentrator disk and then transferred to a magnetic tape for analysis and report generation by the main research computer. The overall scheme involved modulating the primary signal from the pressure transducer, generating the primary data set of the one-minute values for systolic, diastolic, and mean blood pressures and heart rate by the in-lab microcomputer and the storage, analysis, and report generation by the main research computer.
The transducers were connected to analog signal conditioning modules. The modules providing a regulated excitation voltage for the transducers, amplification as required to interface the microprocessors and an active low pass filter to compensate for the pressure wave form distortion produced by the flexible, fluid filled, narrow cannula.
The microcomputers (one for each of two groups of 16 rats) were connected to the input components through the module interface units, an analog-to-digital converter for the pressure wave form signal and the digital inputs for the dose and event marker switches. The microcomputer controlled the sequential acquisition of data from the modular interface units through an internal synchronous time-of-day clock/ time base generator. […]

[4] = coronary flow, isolated perfused rat heart, read-out: PCS2A CF ED50
[5] = heart rate, isolated perfused rat heart, read-out: PCS2A HR ED50
[6] = 10 mg/kg intraperitoneally, one hour prior to testing; vs vehicle
[7] = 30 mg/kg intraperitoneally, one hour prior to testing; vs vehicle
[8] = 100 mg/kg intraperitoneally, one hour prior to testing; vs vehicle
[9] = Mus musculus, ip; read-out: MAST LI LAD
[10] = lowest dose tested at which a >10% reduction in blood pressure for four consecutive hours is achieved, conscious rat

OC[C@H]1O[C@@H](n2cnc3c(NCC(c4ccccc4)c4ccccc4)nc(Cl)nc32)[C@H](O)[C@@H]1O [Example 3, N^6-(2,2-Dipenylethyl)-2-chloroadenosine]
EC50 (rat heart; [4]): 30 µM
EC50 (rat heart; [5]): > 30 µM
Inhibition of mouse locomotor activity (Swiss-Webster male mice [1]; [6]): 56%
Inhibition of mouse locomotor activity (Swiss-Webster male mice [1]; [7]): 85%
Inhibition of mouse locomotor activity (Swiss-Webster male mice [1]; [8]): 92%
minimal effective dose (Swiss-Webster male mice [1]; [9]): 10 mg/kg
ED50 [2]: 9.6 mg/kg
Inhibition of screen test failure (Swiss-Webster male mice [3]; 10 mg/kg intraperitoneally): 0%
Inhibition of screen test failure (Swiss-Webster male mice [3]; 30 mg/kg intraperitoneally): 11%
Inhibition of screen test failure (Swiss-Webster male mice [3]; 100 mg/kg intraperitoneally): 44%
MAST ST LAD (Swiss-Webster male mice [3]): >100 mg/kg
Mμ.c. ↓ (conscious rat; 10 mg/kg, conscious rat, decrease in mean arterial blood pressure): 15%
HR ↑ (conscious rat; 10 mg/kg, conscious rat, heart rate increase): <20%
minimal effective dose (conscious rat; [10]): 10 mg/kg

Nc1nc(NCC(c2ccccc2)c2ccccc2)c2ncn([C@@H]3O[C@H](CO)[C@@H](O)[C@H]3O)c2n1 [Example 4, N^6-(2,2-Diphenylethyl)-2-aminoadenosine]
EC50 (rat heart; [4]): 1 µM
EC50 (rat heart; [5]): > 0.1 µM
Inhibition of mouse locomotor activity (Swiss-Webster male mice [1]; [6]): 64%
Inhibition of mouse locomotor activity (Swiss-Webster male mice [1]; [7]): 87%
Inhibition of mouse locomotor activity (Swiss-Webster male mice [1]; [8]): 95%
minimal effective dose (Swiss-Webster male mice [1]; [9]): 10 mg/kg
ED50 [2]: 3.8 mg/kg
Inhibition of screen test failure (Swiss-Webster male mice [3]; 10 mg/kg intraperitoneally): 0%
Inhibition of screen test failure (Swiss-Webster male mice [3]; 30 mg/kg intraperitoneally): 11%
Inhibition of screen test failure (Swiss-Webster male mice [3]; 100 mg/kg intraperitoneally): 22%
MAST ST LAD (Swiss-Webster male mice [3]): >100 mg/kg
minimal effective dose (conscious rat; [10]): 30 mg/kg

OC[C@H]1O[C@@H](n2cnc3c(NC(c4ccccc4)c4ccccc4)ncnc32)[C@H](O)[C@@H]1O [Example 5, N^6-Diphenylmethyladenosine, reference compound]
EC50 (rat heart; [4]): > 3 µM
EC50 (rat heart; [5]): > 3 µM
minimal effective dose (Swiss-Webster male mice [1]; [9]): 100 mg/kg
ED50 [2]: > 50 mg/kg
MAST ST LAD (Swiss-Webster male mice [3]): >100 mg/kg
minimal effective dose (conscious rat; [10]): > 10 mg/kg

OC[C@H]1O[C@@H](n2cnc3c(NCC(c4ccccc4)c4ccc(F)cc4)ncnc32)[C@H](O)[C@@H]1O (some centres unmarked) [Example 10, N^6-(2-(4-Fluorophenyl)-2-phenylethyl)adenosine]
EC50 (rat heart; [4]): 0.01 µM
EC50 (rat heart; [5]): 1.4 µM
minimal effective dose (Swiss-Webster male mice [1]; [9]): 3 mg/kg
ED50 [2]: 8.6 mg/kg
MAST ST LAD (Swiss-Webster male mice [3]): >100 mg/kg
minimal effective dose (conscious rat; [10]): 10 mg/kg

Nc1nc(NCC(c2ccccc2)c2ccc(F)cc2)c2ncn([C@@H]3O[C@H](CO)[C@@H](O)[C@H]3O)c2n1 (some centres unmarked) [Example 12, N^6-(2-(4-Fluorophenyl)-2-phenylethyl)-2-amino adenosine]
EC50 (rat heart; [4]): > 10 µM
EC50 (rat heart; [5]): > 10 µM
minimal effective dose (Swiss-Webster male mice [1]; [9]): 30 mg/kg
MAST ST LAD (Swiss-Webster male mice [3]): >100 mg/kg
minimal effective dose (conscious rat; [10]): 10 mg/kg

COc1ccc(C(CNc2ncnc3c2ncn3[C@@H]2O[C@H](CO)[C@@H](O)[C@H]2O)c2ccccc2)cc1 (some centres unmarked) [Example 19, N^6-(2-(4-Methoxyphenyl)-2-phenylethyl)adenosine]
EC50 (rat heart; [4]): 0.03 µM
EC50 (rat heart; [5]): > 3 µM
minimal effective dose (Swiss-Webster male mice [1]; [9]): 10 mg/kg
MAST ST LAD (Swiss-Webster male mice [3]): 30 mg/kg
minimal effective dose (conscious rat; [10]): 10 mg/kg

O=[N+]([O-])c1ccc(C(CNc2ncnc3c2ncn3[C@@H]2O[C@H](CO)[C@@H](O)[C@H]2O)c2ccc([N+](=O)[O-])cc2)cc1 [Example 20, N^6-(2,2-Di-(4-nitrophenyl)ethyl)adenosine]
EC50 (rat heart; Rattus norvegicus, read-out: PCS2A CF ED50): 0.3 µM
EC50 (rat heart; Rattus norvegicus, read-out: PCS2A HR ED50): > 3 µM
minimal effective dose (Swiss-Webster male mice [1]; Mus musculus, ip, read-out: MAST LI LAD): 100 mg/kg
MAST ST LAD (Swiss-Webster male mice [3]): >100 mg/kg
minimal effective dose (conscious rat; Rattus norvegicus): > 10 mg/kg

CC(CNc1nc(N)nc2c1ncn2[C@@H]1O[C@H](CO)[C@@H](O)[C@H]1O)(c1ccccc1)c1ccccc1 [Example 21, N'-(2,2-Diphenylpropyl)-2-aminoadenosine]
EC50 (rat heart; [4]): > 10 µM
EC50 (rat heart; [5]): > 10 µM
minimal effective dose (Swiss-Webster male mice [1]; [9]): 30 mg/kg
MAST ST LAD (Swiss-Webster male mice [3]): >100 mg/kg
minimal effective dose (conscious rat; [10]): > 10 mg/kg

OC[C@H]1O[C@@H](n2cnc3c(NCC(O)(c4ccccc4)c4ccccc4)ncnc32)[C@H](O)[C@@H]1O [Example 22, N^6-(2,2-Diphenyl-2-hydroxyethyl)adenosine]
EC50 (rat heart; [4]): > 1 µM
EC50 (rat heart; [5]): 0.5 µM
minimal effective dose (Swiss-Webster male mice [1]; [9]): 1 mg/kg
MAST ST LAD (Swiss-Webster male mice [3]): 100 mg/kg
minimal effective dose (conscious rat; [10]): 10 mg/kg

Nc1nc(NCC(O)(c2ccccc2)c2ccccc2)c2ncn([C@@H]3O[C@H](CO)[C@@H](O)[C@H]3O)c2n1 [Example 23, N^6-(2,2-Diphenyl-2-hydroxyethyl)-2-aminoadenosine]
EC50 (rat heart; [4]): > 3 µM
EC50 (rat heart; [5]): ~1 µM
minimal effective dose (Swiss-Webster male mice [1]; [9]): 3 mg/kg
MAST ST LAD (Swiss-Webster male mice [3]): >100 mg/kg
minimal effective dose (conscious rat; [10]): > 10 mg/kg
